Source: patent US4965272A, “Antimicrobial compound and compositions particularly effective against candida albicans” (priority 1988, dated 1990)
≈ marks a conversion by molar mass, not a printed value.

Experiments:
Candida albicans [1] = test: in vivo testing, disseminated infection of Candida albicans in outbred mice
Excerpt: In the in vivo testing of the inventive compound and compositions, outbred mice were used. A disseminated infection of Candida albicansin the test animals was achieved by intravenous injection of 0.5 to 1×10^6 CFU of the pathogen. The organism is rapidly cleared from the blood and most tissues, except the kidney which is the primary target organ for the disseminated infection in mice. It is known than an inoculum of 0.5×10^6 CFU will cause death of outbred mice within 10-14 days due to disseminated infection if untreated. The vehicle used for administering the compound of the invention was a mixture consisting of 50% USP water, 40% propylene glycol and 10% absolute ethonol.

[2] = humans, under varying conditions; cited from earlier work
Candida albicans 10231 = test: MIC, twofold serial broth dilution assay; format: cell-based; details: ATCC10231; Candida albicans ATCC 10231; 24 and 48 hours at 37°
Method: (§1) Candida albicansNIH B311 used to induce experimental disseminated candidiasis was used for the initial qualitative evaluation of anticandidal activity. The organism was grown in Sabouraud-dextrose broth (SDB) for 14 hours at 37°, at which time the cells were harvested by centrifugation (4°, 2000 rpm, 3 min). After centrifugation, the cells were washed and suspended in sterile 0.9% saline to give a final concentration of […] colony forming units (CFU) per ml (adjusted using a hemocytometer). Culture plates (15×100 mm) for the qualitative assay were prepared from 25 ml of Sabouraud-dextrose agar. Using sterile cotton swabs, the plates were streaked with the suspension ([…] of Candida albicansB311. Cylindrical plugs were removed from the agar plates by means of a sterile cork borer to produce wells with a diameter of approximately 11 mm. To the well was added 100 μl of solution or suspension of an extract, fraction, or pure compound. Crude extracts and fractions were tested at a concentration of 20 mg/ml, whereas pure compounds were tested at 1 mg/ml. When solvents other than H2 O, EtOH, MeOH, DMSO, DMF, or Me2 CO were required to dissolve extracts or compounds, solvent blanks were included. Anticandidal activity was recorded as the width (in mm) of the zone of inhibition following incubation of the plates at 37° for 24 hours. The antifungal agents amphotericin-B and ketoconazole were included as standards in each assay.
(§2) The method used to determine the minimum inhibitory concentration (MIC) of the inventive compound was a twofold serial broth dilution assay in yeast nitrogen broth. In addition to Candida albicansB311, the MIC values for eupolauridine were also determined for two additional strains of Candida albicans: ATCC 10231 and a clinical isolate, designated WH. The inventive compound was initially tested using a concentration of 100 μg/ml in the first tube. The compound was added to sterile Sabouraud-dextrose broth as a solution in DMSO. The inoculum for the MIC determination was prepared as described for qualitative evaluation. […]

Candida albicans B311 = test: MIC, twofold serial broth dilution assay; format: cell-based; details: 24 and 48 hours at 37°
Method: as §1, §2

Candida albicans WH = test: MIC, twofold serial broth dilution assay; format: cell-based; details: Candida albicans clinical isolate WH; 24 and 48 hours at 37°
Method: as §1, §2

[3] = test system: Cryptococcus neoformans 32264; test: MIC, twofold serial broth dilution assay; format: cell-based
Aspergillus flavus 9170 = test: MIC, twofold serial broth dilution assay; format: cell-based
[4] = test system: Aspergillus fumigatus 26934; test: MIC, twofold serial broth dilution assay; format: cell-based
[5] = test system: Trichophyton mentagrophytes 9972; test: MIC, twofold serial broth dilution assay; format: cell-based
[6] = test system: Saccharomyces cerevisiae 9763; test: MIC, twofold serial broth dilution assay; format: cell-based
Candida albicans [7] = test: anticandidal activity, agar-well diffusion assay (zone of inhibition); format: cell-based; details: three test strains of Candida albicans
Method: In vitro evaluation of the anticandidal activity of the inventive compound and compositions was carried out using the agar-well diffusion assay as follows:
Candida albicansNIH B311 used to induce experimental disseminated candidiasis was used for the initial qualitative evaluation of anticandidal activity. The organism was grown in Sabouraud-dextrose broth (SDB) for 14 hours at 37°, at which time the cells were harvested by centrifugation (4°, 2000 rpm, 3 min). After centrifugation, the cells were washed and suspended in sterile 0.9% saline to give a final concentration of […] colony forming units (CFU) per ml (adjusted using a hemocytometer). Culture plates (15×100 mm) for the qualitative assay were prepared from 25 ml of Sabouraud-dextrose agar. […] Anticandidal activity was recorded as the width (in mm) of the zone of inhibition following incubation of the plates at 37° for 24 hours. […]

SMILES: C[C@@H]1[C@H](O)[C@@H](C)/C=C/C=C/C=C/C=C/C=C/C=C/C=C/[C@H](O[C@@H]2O[C@H](C)[C@@H](O)[C@H](N)[C@@H]2O)C[C@@H]2O[C@](O)(C[C@@H](O)C[C@@H](O)[C@H](O)CC[C@@H](O)C[C@@H](O)CC(=O)O[C@H]1C)C[C@H](O)[C@H]2C(=O)O [Amphotericin-B, amphotericin-B, reference compound]
- Number dead/Total (Candida albicans [1]; 2.5 mg/kg, day 1): 0/10
- Number dead/Total (Candida albicans [1]; 2.5 mg/kg, day 2): 0/10
- Number dead/Total (Candida albicans [1]; 2.5 mg/kg, day 3): 0/10
- Number dead/Total (Candida albicans [1]; 2.5 mg/kg, day 4): 0/10
- Number dead/Total (Candida albicans [1]; 2.5 mg/kg, day 5): 0/10
- Number dead/Total (Candida albicans [1]; 2.5 mg/kg, day 6): 1/10
- Number dead/Total (Candida albicans [1]; 2.5 mg/kg, day 7): 2/10
- Number dead/Total (Candida albicans [1]; 2.5 mg/kg, day 8): 2/10
- Number dead/Total (Candida albicans [1]; 2.5 mg/kg, day 9): 4/10
- Number dead/Total (Candida albicans [1]; 2.5 mg/kg, day 10): 4/10
- side effects [2]: fever, anorexia, nausea and vomiting, diarrhea, muscle and joint pain, phlebitis and thiophlebitis, anemia, abnormal renal function, anuria, cardiovascular distress, hypertension and hypotension

SMILES: c1ccc2c(c1)-c1nccc3ccnc-2c13 [Eupolauridine, eupolauridine]
- MIC (Candida albicans 10231): 1.56 µg/mL (≈ 7.64 µM)
- MIC (Candida albicans B311): 1.56 µg/mL (≈ 7.64 µM)
- MIC (Candida albicans WH): 1.56 µg/mL (≈ 7.64 µM)
- MIC [3]: 1.56 µg/mL (≈ 7.64 µM)
- MIC (Aspergillus flavus 9170): 6.25 µg/mL (≈ 30.6 µM)
- MIC [4]: 6.25 µg/mL (≈ 30.6 µM)
- MIC [5]: 1.56 µg/mL (≈ 7.64 µM)
- MIC [6]: 3.12 µg/mL (≈ 15.3 µM)
- Number dead/Total (Candida albicans [1]; 2 mg/kg, day 1): 0/10
- Number dead/Total (Candida albicans [1]; 2 mg/kg, day 2): 0/10
- Number dead/Total (Candida albicans [1]; 2 mg/kg, day 3): 0/10
- Number dead/Total (Candida albicans [1]; 2 mg/kg, day 4): 0/10
- Number dead/Total (Candida albicans [1]; 2 mg/kg, day 5): 0/10
- Number dead/Total (Candida albicans [1]; 2 mg/kg, day 6): 1/10
- Number dead/Total (Candida albicans [1]; 2 mg/kg, day 7): 3/10
- Number dead/Total (Candida albicans [1]; 2 mg/kg, day 8): 4/10
- Number dead/Total (Candida albicans [1]; 2 mg/kg, day 9): 4/10
- Number dead/Total (Candida albicans [1]; 2 mg/kg, day 10): 7/10
- Number dead/Total (Candida albicans [1]; 7 mg/kg, day 1): 0/10
- Number dead/Total (Candida albicans [1]; 7 mg/kg, day 2): 0/10
- Number dead/Total (Candida albicans [1]; 7 mg/kg, day 3): 2/10
- Number dead/Total (Candida albicans [1]; 7 mg/kg, day 4): 2/10
- Number dead/Total (Candida albicans [1]; 7 mg/kg, day 5): 2/10
- Number dead/Total (Candida albicans [1]; 7 mg/kg, day 6): 3/10
- Number dead/Total (Candida albicans [1]; 7 mg/kg, day 7): 3/10
- Number dead/Total (Candida albicans [1]; 7 mg/kg, day 8): 3/10
- Number dead/Total (Candida albicans [1]; 7 mg/kg, day 9): 4/10
- Number dead/Total (Candida albicans [1]; 7 mg/kg, day 10): 7/10
- animals survived (Candida albicans [1]; 20 mg/kg body weight, 10 days): 50%
- survival compared with amphotericin-B (Candida albicans [1]; 20 mg/kg body weight, 10 days): not statistically significantly different from the results with amphotericin-B
- Number dead/Total (Candida albicans [1]; 20 mg/kg, day 1): 0/10
- Number dead/Total (Candida albicans [1]; 20 mg/kg, day 2): 0/10
- Number dead/Total (Candida albicans [1]; 20 mg/kg, day 3): 0/10
- Number dead/Total (Candida albicans [1]; 20 mg/kg, day 4): 0/10
- Number dead/Total (Candida albicans [1]; 20 mg/kg, day 5): 0/10
- Number dead/Total (Candida albicans [1]; 20 mg/kg, day 6): 0/10
- Number dead/Total (Candida albicans [1]; 20 mg/kg, day 7): 1/10
- Number dead/Total (Candida albicans [1]; 20 mg/kg, day 8): 3/10
- Number dead/Total (Candida albicans [1]; 20 mg/kg, day 9): 3/10
- Number dead/Total (Candida albicans [1]; 20 mg/kg, day 10): 5/10
- zone of inhibition (Candida albicans [7]): remarkable zone of inhibition
